# Results: patent publication US8980832B2, “Use of fumaric acid derivatives for treating cardiac insufficiency, and asthma” (Biogen Idec International GmbH, priority 2003, dated 2015)
# Where a name gives a salt, the structure may show the parent alone.
# Key:
# [1] = system: BSM (bronchial smooth muscle) cells; assay: inhibition of the PDGF-induced incorporation of 3H-thymidine in BSM cells (Example B); format: cell-based; conditions: 10^-5 M dimethyl fumarate; 0, 1, 5, 10 and 20 ng/ml PDGF; 24 h 3H-thymidine
# Protocol: BSM (bronchial smooth muscle) cells were cultivated in RPMI, 0.3% albumin and 0.1% DMSO at 37° C. in the presence of 0, 1, 5, 10 and 20 ng/ml on PDGF with and without 10^−5 M dimethyl fumarate.
# After a predetermined period of time, 5 μCi on ^3H-thymidine was added to the culture medium and incubation was continued for further 24 hours. The incorporation was finally stopped by means of centrifugation, removal of the supernatant, washing and lysis of the cells. The incorporation on ^3H-thymidine was measured by determining the radioactivity in the lysates in a liquid scintillation device in comparison to the control. The results are shown in FIG. 2 as percentage values as compared with the control (100%).
# [2] = system: Bronchial smooth muscle cells; assay: PDGF-stimulated proliferation of bronchial smooth muscle cells, 3H-thymidine (Example C); format: cell-based; conditions: 10 ng/ml PDGF; 10^-5 M DMF; 36 h treatment + 8 h 3H-thymidine
# Protocol: Bronchial smooth muscle cells were grown in 96 well plates until they reached 60-70% confluency. The cells were then starved for 48 h in serum free, 0.3% albumine containing RPMI medium. […] As a control untreated cells (buffer only) were used. Cells were treated for 36 h, whereafter 4 μCi of ^3H-thymidine was added for further 8 hours. The cells were lysed, DNA-incorporated ^3H-thymidine bound to filter membranes, and the incorporated cpm measured in a liquid scintillation device.
# [3] = system: rat model of acute ischemia and reperfusion; assay: acute ischemia and reperfusion model of the rat, size of the infarction; format: in vivo; conditions: 10 mg dimethyl fumarate in 0.02% DMSO iv at beginning of first occlusion; 45 min ischemia, 120 min reperfusion; vs control
# Protocol: The effects of dimethyl fumarate were examined in the present experiment using the model of acute ischemia and reperfusion of the rat. For this purpose, healthy, male rats were divided into three groups with 17 animals each. In the tests, an ischemia was caused for 45 minutes through an occlusion of an artery with the heart being exposed and, subsequently, reperfusion was carried out for 120 minutes. Finally, a myocardial infarction was triggered by means of a reocclusion and the risk area was determined by means of dyeing with phthalocyanine blue. The administration of the test substance was carried out iv at the beginning of the first occlusion. The control group received 0.02% DMSO (0.5 ml/kg body weight), the DMF group received 10 mg dimethyl fumarate in 0.02% DMSO (0.5 ml/kg body weight). The animals were ischemically preconditioned in the second group (2 times 5 minutes each ischemia and reperfusion). The results are represented in FIG. 1.
# [4] = system: Dahl-rats; assay: left ventricular enddiastolic diameter in Dahl rats on high salt diet, echocardiography; format: in vivo, rat; conditions: 2x5 and 2x15 mg DMF/kg/d, 8 weeks of high salt diet
# Protocol: Dahl-rats, which are salt sensitive, were administered varying dosages of DMF on a daily basis and put on a high salt diet. After 8 weeks of treatment the left ventricular enddiastolic diameters were measured for test and control groups by echocardiographic analysis. Groups measured were control (0 mg DMF; n=9); group 1 (2×5 mg DMF/kg/d; n=9) and group 2 (2×15 mg DMF/kg/d; n=11). […] Specifically, in the DMF groups the inner diameter of the left ventricle remained in the same range as at baseline (see FIG. 4). […] Importantly, dilatation of the left ventricle marks the transition from compensated hypertrophy to decompensated heart failure. Consequently, DMF delays the transition to heart failure, and thus prevents myocardial infarctions.
compound,measurement,setting,value
"COC(=O)/C=C/C(=O)OC [DMF, dimethyl fumarate]",PDGF-induced 3H-thymidine incorporation,[1],this increase is significantly reduced
same,"cell proliferation, percentage of control (100%)",[2],116±4%
same,size of the infarction,[3],limited the size of the infarction to a statistically significant degree
same,dilatation of the left ventricle (left ventricular enddiastolic diameter),[4],prevented the dilatation of the left ventricle after 8 weeks of high salt diet in dose dependent manner
